From patent US9149038B2, “4-amino-6-(heterocyclic)picolinates and 6-amino-2-(heterocyclic)pyrimidine-4-carboxylates and their use as herbicides” (Dow AgroSciences LLC, priority 2013, dated 2015)
Like-named read-outs stand apart in the source and are kept apart here.

Columns and labels:
[1] = system: Key Broadleaf Weed and Crop Species; experiment: Post-Emergent Test II: postemergent herbicidal activity, visual rating after 14 d (Table 7); type: in vivo; conditions: post-emergence, 336 h; for pest or weed control at 35 g/ha: 35 g ai/ha; for pest or weed control at 70 g/ha: 70 g ai/ha; for pest or weed control at 140 g/ha: 140 g ai/ha; for pest or weed control at 280 g/ha: 280 g ai/ha
How it was run: (§1)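 Scoring is visual, 0-100, at 14 d after application, comparing treated with untreated plants. Application: overhead track spray at 187 L/ha onto seedlings at 1-2 true leaves, in surfactant/crop-oil carrier.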

[2] = system: Key Grass and Sedge Weeds as well as Grass Crops; experiment: Post-Emergent Test II: postemergent herbicidal activity, visual rating after 14 d (Table 8); type: in vivo; conditions: post-emergence, 336 h; for pest or weed control at 35 g/ha: 35 g ai/ha; for pest or weed control at 70 g/ha: 70 g ai/ha; for pest or weed control at 140 g/ha: 140 g ai/ha; for pest or weed control at 280 g/ha: 280 g ai/ha
How it was run: as §1

[3] = ABUTH: velvetleaf (Abutilon theophrasti), read-out: Visual Growth Reduction (%) 14 Days After Application ABUTH
[4] = AMARE: redroot pigweed (Amaranthus retroflexus), read-out: Visual Growth Reduction (%) 14 Days After Application AMARE
[5] = BRSNN: oilseed rape, canola (Brassica napus), read-out: Visual Growth Reduction (%) 14 Days After Application BRSNN
[6] = CHEAL: lambsquarters (Chenopodium album), read-out: Visual Growth Reduction (%) 14 Days After Application CHEAL
[7] = EPHHL: wild poinsettia (Euphorbia heterophylla), read-out: Visual Growth Reduction (%) 14 Days After Application EPHHL
[8] = HELAN: sunflower (Helianthus annuus), read-out: Visual Growth Reduction (%) 14 Days After Application HELAN
[9] = barnyardgrass (Echinochloa crus-galli), read-out: Visual Growth Reduction (%) 14 Days After Application, ECHCG
[10] = giant foxtail (Setaria faberi), read-out: Visual Growth Reduction (%) 14 Days After Application, SETFA
[11] = maize, corn (Zea mays), read-out: Visual Growth Reduction (%) 14 Days After Application, ZEAMX
[12] = rice (Oryza sativa), read-out: Visual Growth Reduction (%) 14 Days After Application, ORYSA
[13] = wheat, spring (Triticum aestivum), read-out: Visual Growth Reduction (%) 14 Days After Application, TRZAS
[14] = yellow nutsedge (Cyperus esculentus), read-out: Visual Growth Reduction (%) 14 Days After Application, CYPES

Nc1c(F)c(-c2ccc3c(c2)COC3)nc(C(=O)O)c1Cl [Compound 104]
pest or weed control at 35 g/ha [1, 3]: 0 to 29% | pest or weed control at 70 g/ha [1, 3]: 0 to 29% | pest or weed control at 140 g/ha [1, 3]: 0 to 29% | pest or weed control at 35 g/ha [1, 4]: 0 to 29% | pest or weed control at 70 g/ha [1, 4]: 0 to 29% | pest or weed control at 140 g/ha [1, 4]: 0 to 29% | pest or weed control at 35 g/ha [1, 5]: 0 to 29% | pest or weed control at 70 g/ha [1, 5]: 0 to 29% | pest or weed control at 140 g/ha [1, 5]: 0 to 29% | pest or weed control at 35 g/ha [1, 6]: 45 to 59% | pest or weed control at 70 g/ha [1, 6]: 85 to 94% | pest or weed control at 140 g/ha [1, 6]: 85 to 94% | pest or weed control at 35 g/ha [1, 7]: 0 to 29% | pest or weed control at 70 g/ha [1, 7]: 0 to 29% | pest or weed control at 140 g/ha [1, 7]: 0 to 29% | pest or weed control at 35 g/ha [1, 8]: 45 to 59% | pest or weed control at 70 g/ha [1, 8]: 75 to 84% | pest or weed control at 140 g/ha [1, 8]: 75 to 84% | pest or weed control at 35 g/ha [2, 9]: 0 to 29% | pest or weed control at 70 g/ha [2, 9]: 0 to 29% | pest or weed control at 140 g/ha [2, 9]: 0 to 29% | pest or weed control at 35 g/ha [2, 10]: 0 to 29% | pest or weed control at 70 g/ha [2, 10]: 0 to 29% | pest or weed control at 140 g/ha [2, 10]: 0 to 29% | pest or weed control at 35 g/ha [2, 11]: 0 to 29% | pest or weed control at 70 g/ha [2, 11]: 0 to 29% | pest or weed control at 140 g/ha [2, 11]: 0 to 29% | pest or weed control at 35 g/ha [2, 12]: 0 to 29% | pest or weed control at 70 g/ha [2, 12]: 0 to 29% | pest or weed control at 140 g/ha [2, 12]: 0 to 29% | pest or weed control at 35 g/ha [2, 13]: 0 to 29% | pest or weed control at 70 g/ha [2, 13]: 0 to 29% | pest or weed control at 140 g/ha [2, 13]: 0 to 29% | pest or weed control at 35 g/ha [2, 14]: 0 to 29% | pest or weed control at 70 g/ha [2, 14]: 0 to 29% | pest or weed control at 140 g/ha [2, 14]: 0 to 29%

COC(=O)c1nc(-c2ccc3c(c2)SCO3)c(F)c(N)c1Cl [Compound 105]
pest or weed control at 35 g/ha [1, 3]: 0 to 29% | pest or weed control at 70 g/ha [1, 3]: 0 to 29% | pest or weed control at 140 g/ha [1, 3]: 0 to 29% | pest or weed control at 35 g/ha [1, 4]: 0 to 29% | pest or weed control at 70 g/ha [1, 4]: 0 to 29% | pest or weed control at 140 g/ha [1, 4]: 45 to 59% | pest or weed control at 35 g/ha [1, 5]: 0 to 29% | pest or weed control at 70 g/ha [1, 5]: 30 to 44% | pest or weed control at 140 g/ha [1, 5]: 60 to 74% | pest or weed control at 35 g/ha [1, 6]: 30 to 44% | pest or weed control at 70 g/ha [1, 6]: 30 to 44% | pest or weed control at 140 g/ha [1, 6]: 60 to 74% | pest or weed control at 35 g/ha [1, 7]: 60 to 74% | pest or weed control at 70 g/ha [1, 7]: 75 to 84% | pest or weed control at 140 g/ha [1, 7]: 85 to 94% | pest or weed control at 35 g/ha [1, 8]: 85 to 94% | pest or weed control at 70 g/ha [1, 8]: 85 to 94% | pest or weed control at 140 g/ha [1, 8]: 95 to 100% | pest or weed control at 35 g/ha [2, 9]: 45 to 59% | pest or weed control at 70 g/ha [2, 9]: 60 to 74% | pest or weed control at 140 g/ha [2, 9]: 75 to 84% | pest or weed control at 35 g/ha [2, 10]: 0 to 29% | pest or weed control at 70 g/ha [2, 10]: 0 to 29% | pest or weed control at 140 g/ha [2, 10]: 30 to 44% | pest or weed control at 35 g/ha [2, 11]: 0 to 29% | pest or weed control at 70 g/ha [2, 11]: 0 to 29% | pest or weed control at 140 g/ha [2, 11]: 0 to 29% | pest or weed control at 35 g/ha [2, 12]: 0 to 29% | pest or weed control at 70 g/ha [2, 12]: 0 to 29% | pest or weed control at 140 g/ha [2, 12]: 0 to 29% | pest or weed control at 35 g/ha [2, 13]: 0 to 29% | pest or weed control at 70 g/ha [2, 13]: 0 to 29% | pest or weed control at 140 g/ha [2, 13]: 0 to 29% | pest or weed control at 35 g/ha [2, 14]: 0 to 29% | pest or weed control at 70 g/ha [2, 14]: 0 to 29% | pest or weed control at 140 g/ha [2, 14]: 0 to 29%

COC(=O)c1nc(-c2ccc3c(c2F)OC(F)(F)C3(F)F)cc(N)c1Cl [Compound 106]
pest or weed control at 35 g/ha [1, 3]: 45 to 59% | pest or weed control at 70 g/ha [1, 3]: 75 to 84% | pest or weed control at 140 g/ha [1, 3]: 75 to 84% | pest or weed control at 280 g/ha [1, 3]: 85 to 94% | pest or weed control at 35 g/ha [1, 4]: 30 to 44% | pest or weed control at 70 g/ha [1, 4]: 30 to 44% | pest or weed control at 140 g/ha [1, 4]: 60 to 74% | pest or weed control at 280 g/ha [1, 4]: 75 to 84% | pest or weed control at 35 g/ha [1, 5]: 0 to 29% | pest or weed control at 70 g/ha [1, 5]: 0 to 29% | pest or weed control at 140 g/ha [1, 5]: 0 to 29% | pest or weed control at 280 g/ha [1, 5]: 0 to 29% | pest or weed control at 35 g/ha [1, 6]: 0 to 29% | pest or weed control at 70 g/ha [1, 6]: 0 to 29% | pest or weed control at 140 g/ha [1, 6]: 45 to 59% | pest or weed control at 280 g/ha [1, 6]: 75 to 84% | pest or weed control at 35 g/ha [1, 7]: 45 to 59% | pest or weed control at 70 g/ha [1, 7]: 60 to 74% | pest or weed control at 140 g/ha [1, 7]: 75 to 84% | pest or weed control at 280 g/ha [1, 7]: 75 to 84% | pest or weed control at 35 g/ha [1, 8]: 0 to 29% | pest or weed control at 70 g/ha [1, 8]: 0 to 29% | pest or weed control at 140 g/ha [1, 8]: 0 to 29% | pest or weed control at 280 g/ha [1, 8]: 30 to 44% | pest or weed control at 35 g/ha [2, 9]: 0 to 29% | pest or weed control at 70 g/ha [2, 9]: 0 to 29% | pest or weed control at 140 g/ha [2, 9]: 0 to 29% | pest or weed control at 280 g/ha [2, 9]: 0 to 29% | pest or weed control at 35 g/ha [2, 10]: 0 to 29% | pest or weed control at 70 g/ha [2, 10]: 0 to 29% | pest or weed control at 140 g/ha [2, 10]: 0 to 29% | pest or weed control at 280 g/ha [2, 10]: 0 to 29% | pest or weed control at 35 g/ha [2, 11]: 0 to 29% | pest or weed control at 70 g/ha [2, 11]: 0 to 29% | pest or weed control at 140 g/ha [2, 11]: 0 to 29% | pest or weed control at 280 g/ha [2, 11]: 0 to 29% | pest or weed control at 35 g/ha [2, 12]: 0 to 29% | pest or weed control at 70 g/ha [2, 12]: 0 to 29% | pest or weed control at 140 g/ha [2, 12]: 0 to 29% | pest or weed control at 280 g/ha [2, 12]: 0 to 29% | pest or weed control at 35 g/ha [2, 13]: 0 to 29% | pest or weed control at 70 g/ha [2, 13]: 0 to 29% | pest or weed control at 140 g/ha [2, 13]: 0 to 29% | pest or weed control at 280 g/ha [2, 13]: 0 to 29% | pest or weed control at 35 g/ha [2, 14]: 0 to 29% | pest or weed control at 70 g/ha [2, 14]: 0 to 29% | pest or weed control at 140 g/ha [2, 14]: 0 to 29% | pest or weed control at 280 g/ha [2, 14]: 0 to 29%
